This note sets out measurements from ChEMBL document CHEMBL4411316, “Design, synthesis and identification of novel coumaperine derivatives for inhibition of human 5-LOX: Antioxidant, pseudoperoxidase and docking studies” (Bioorg Med Chem, 2019).

By inhibition is commonly meant the share of the control response that was lost under treatment. A word on the IC50: it is the concentration that inhibits the measured activity by half.

Calls of active or inactive are those of the source. The rule behind the calls is not given here.

The first test addresses T1, Polyunsaturated fatty acid 5-lipoxygenase (Homo sapiens) (UniProt P09917).
T1 sequence (whole entry): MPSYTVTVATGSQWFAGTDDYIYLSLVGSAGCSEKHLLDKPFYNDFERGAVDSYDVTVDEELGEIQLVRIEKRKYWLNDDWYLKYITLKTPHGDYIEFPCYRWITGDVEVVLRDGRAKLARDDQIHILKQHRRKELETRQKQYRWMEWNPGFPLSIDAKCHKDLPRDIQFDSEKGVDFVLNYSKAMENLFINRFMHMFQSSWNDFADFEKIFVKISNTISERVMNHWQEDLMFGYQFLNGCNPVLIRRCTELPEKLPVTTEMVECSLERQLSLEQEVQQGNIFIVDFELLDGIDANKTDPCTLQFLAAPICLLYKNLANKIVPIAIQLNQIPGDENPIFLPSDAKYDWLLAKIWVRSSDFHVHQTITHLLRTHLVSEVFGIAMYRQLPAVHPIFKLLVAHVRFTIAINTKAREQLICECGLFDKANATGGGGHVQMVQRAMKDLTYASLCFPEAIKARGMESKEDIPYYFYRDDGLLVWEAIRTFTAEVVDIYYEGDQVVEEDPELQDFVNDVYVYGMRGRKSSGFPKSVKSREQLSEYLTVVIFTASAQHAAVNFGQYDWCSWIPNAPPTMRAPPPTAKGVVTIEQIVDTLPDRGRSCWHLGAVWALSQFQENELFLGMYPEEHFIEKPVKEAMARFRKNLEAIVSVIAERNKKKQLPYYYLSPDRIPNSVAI
The test is described as follows: Inhibition of recombinant human 5-LOX expressed in Escherichia coli at 20 uM using arachidonic acid as substrate by UV-vis spectrophotometric method relative to control.
For `O=C(/C=C/C=C/c1ccc(Cl)cc1)N1CCCCC1`, the inhibition amounted to 14.5%. On the same count and under the same terms, with `CN(C)c1ccc(/C=C/C=C/C(=O)N2CCCCC2)cc1` the figure was 13.4%.

In the case of `COc1ccc(/C=C/C=C/C(=O)N2CCCCC2)cc1`, the inhibition amounted to 42.6%. Same read-out and setting: with `O=C(/C=C/C=C/c1ccc(O)c(O)c1)N1CCCCC1` the figure was 82.8%. In the case of `O=C(/C=C/c1ccc2c(c1)OCO2)N1CCCCC1`, the inhibition was determined as 39.9%. On the same count and under the same terms, in the case of `CC(=O)Oc1ccc(/C=C/C=C/C(=O)N2CCCCC2)cc1` it was 18.3%. With `COc1cc(OC)c(/C=C/C=C/C(=O)N2CCCCC2)c(OC)c1`, the inhibition was determined as 77.1%. Same read-out and setting: in the case of `O=C(/C=C/C=C/c1ccccc1)N1CCCCC1` it was 36.3%. With `CSc1ccc(/C=C/C=C/C(=O)N2CCCCC2)cc1`, the inhibition is 11.8%. On to `COc1cc(/C=C/C=C/C(=O)N2CCCCC2)cc(OC)c1OC`, for which the inhibition is 66.7%. In the case of `O=C(/C=C/C=C/C=C/c1ccc(O)c(O)c1)N1CCCCC1`, the inhibition was determined as 30.3%.

On to `O=C(/C=C/C=C/c1cc(O)c(O)c(O)c1)N1CCCCC1`, for which the inhibition was 82.5%. With `CN(C)c1ccc(/C=C/C=C/C=C/C(=O)N2CCCCC2)cc1`, the inhibition was determined as 27.4%. On to `COc1cc(/C=C/C=C/C(=O)N2CCCCC2)cc(OC)c1`, for which the inhibition came out at 64.9%. Still for that read-out and setting: in the case of `O=C(/C=C/C=C/c1ccc(F)cc1)N1CCCCC1` it was 48.7%; in that of `O=C(/C=C/C=C/c1ccc2c(c1)OCO2)N1CCCCC1`, 47.5%; in that of `O=C(/C=C/C=C/C=C/c1ccc2c(c1)OCO2)N1CCCCC1`, 76%.

As to `COc1cc(/C=C/C=C/C(=O)N2CCCCC2)ccc1O`, the inhibition is 55.5%. Regarding `COc1ccc(/C=C/C=C/C=C/C(=O)N2CCCCC2)cc1`, the inhibition came out at 1.08%. For the compound `COc1ccc(/C=C/C=C/C(=O)N2CCCCC2)cc1OC`, the inhibition was 51.9%.

Consider `COc1cc(/C=C/C=C/C(=O)N2CCCCC2)cc(OC)c1O`, for which the inhibition was determined as 32.7%. The same measure, in the same setting: with `O=C(/C=C/C=C/c1ccc(OC2CCCC2)cc1)N1CCCCC1` the figure was 16.1%; with `O=C(/C=C/C=C/c1ccc(O)cc1)N1CCCCC1`, 44.4%; with `COc1ccc(/C=C/C=C/C(=O)N2CCCCC2)c(OC)c1OC`, 36%. In the case of `O=C(/C=C/c1ccc(O)c(O)c1)N1CCCCC1`, the inhibition was determined as 55.2%.

In another test the target is T2, Polyunsaturated fatty acid 5-lipoxygenase (Homo sapiens, UniProt P09917).
T2 sequence (P09917 whole entry): T1 sequence (whole entry)
In words: Inhibition of recombinant human 5-LOX expressed in Escherichia coli using arachidonic acid as substrate by UV-vis spectrophotometric method.
As to `O=C(/C=C/C=C/c1ccc(O)c(O)c1)N1CCCCC1`, the IC50 amounted to 2.1 µM. Same read-out and setting: in the case of `O=C(/C=C/C=C/c1cc(O)c(O)c(O)c1)N1CCCCC1` it was 2.3 µM.

In the next test the target is T2, Polyunsaturated fatty acid 5-lipoxygenase. The test is described as follows: Inhibition of human 5-LOX using arachidonic acid as substrate measured after 10 mins by ELISA. For orientation: ELISA stands for enzyme-linked immunosorbent assay.
`COc1cc(/C=C/c2ccc(O)cc2)cc(OC)c1` [PTEROSTILBENE] showed a half-maximal inhibitory concentration (IC50) of 9.32 µM.

Consider `COC1=C(OC)C(=O)C(CCCCCCCCCCO)=C(C)C1=O` [IDEBENONE], for which the IC50 is greater than 10 µM. Same read-out and setting: with `Oc1cc(O)cc(/C=C/c2ccc(O)cc2O)c1` [OXYRESVERATROL] the figure was 18.5 µM.

Tested on in a further test: not listed separately
In words: Antioxidant activity assessed as DPPH radical scavenging activity at 20 uM incubated for 30 mins under dark condition relative to control. Type of test: functional. On the technique in general: The DPPH test is a chemical assay of radical scavenging.
For the compound `O=C1O[C@H]([C@@H](O)CO)C(O)=C1O`, the Activity came out at 80.1%. In the case of `O=C(/C=C/C=C/c1ccc(O)c(O)c1)N1CCCCC1`, the Activity stood at 76.8%. The same measure, in the same setting: in the case of `COc1cc(OC)c(/C=C/C=C/C(=O)N2CCCCC2)c(OC)c1` it was 3.6%; in that of `O=C(/C=C/C=C/c1cc(O)c(O)c(O)c1)N1CCCCC1`, 71.3%. As to `O=C(/C=C/C=C/C=C/c1ccc2c(c1)OCO2)N1CCCCC1`, the Activity stood at 0.9%.

For a further test, the target named is T1, Polyunsaturated fatty acid 5-lipoxygenase (Homo sapiens). The test is described as follows: Inhibition of recombinant human 5-LOX pseudoperoxidase activity expressed in Escherichia coli BL21 assessed as compound redox activity by measuring reduction in absorption at 10 uM using 13(S)-HpODE as substrate by UV-vis spectrophotometric method relative to control. The arrangement: scale not given: the % may be the effect or the level left.
In the case of `O=C(/C=C/C=C/c1ccc(O)c(O)c1)N1CCCCC1`, the Activity is 57.4%. `COc1cc(OC)c(/C=C/C=C/C(=O)N2CCCCC2)c(OC)c1`: the result was inactive.

On to `O=C(/C=C/C=C/c1cc(O)c(O)c(O)c1)N1CCCCC1`, for which the Activity stood at 50.8%. For `O=C(/C=C/C=C/C=C/c1ccc2c(c1)OCO2)N1CCCCC1`, the outcome was inactive.
